Measured values from PubChem BioAssay (NCI).
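Five compound concentrations were applied to cells in 96-well plates for 48 hours; endpoints were derived by simple linear interpolation of the resulting dose-response curve. TGI denotes the concentration required for complete inhibition of growth.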

Key:
Experiment in all cases: NCI-60 cell line screen, 48 h
NCI-H460 lung = test system: NCI-H460 lung
CCRF-CEM leukemia = test system: CCRF-CEM leukemia
IGROV1 ovarian = test system: IGROV1 ovarian
SN12C renal = test system: SN12C renal
HT29 colon = test system: HT29 colon
K-562 leukemia = test system: K-562 leukemia
RXF 393 renal = test system: RXF 393 renal
SW-620 colon = test system: SW-620 colon
SNB-75 CNS = test system: SNB-75 CNS
KM12 colon = test system: KM12 colon
SF-539 CNS = test system: SF-539 CNS
OVCAR-5 ovarian = test system: OVCAR-5 ovarian
SK-OV-3 ovarian = test system: SK-OV-3 ovarian
SF-268 CNS = test system: SF-268 CNS
MALME-3M melanoma = test system: MALME-3M melanoma
MDA-MB-231 breast = test system: MDA-MB-231 breast
OVCAR-3 ovarian = test system: OVCAR-3 ovarian
UACC-62 melanoma = test system: UACC-62 melanoma
SF-295 CNS = test system: SF-295 CNS
DU-145 prostate = test system: DU-145 prostate
HCT-116 colon = test system: HCT-116 colon
TK-10 renal = test system: TK-10 renal
A549 NSCLC = test system: A549 NSCLC
HS 578T breast = test system: HS 578T breast
EKVX NSCLC = test system: EKVX NSCLC
MOLT-4 leukemia = test system: MOLT-4 leukemia
OVCAR-8 ovarian = test system: OVCAR-8 ovarian
SNB-19 CNS = test system: SNB-19 CNS
NCI-H522 lung = test system: NCI-H522 lung
COLO 205 colon = test system: COLO 205 colon
NCI-H226 lung = test system: NCI-H226 lung
ACHN renal = test system: ACHN renal
SR leukemia = test system: SR leukemia
UO-31 renal = test system: UO-31 renal
A498 renal = test system: A498 renal
NCI/ADR-RES ovarian = test system: NCI/ADR-RES ovarian
UACC-257 melanoma = test system: UACC-257 melanoma
LOX IMVI melanoma = test system: LOX IMVI melanoma
CAKI-1 renal = test system: CAKI-1 renal
786-0 renal = test system: 786-0 renal
SK-MEL-5 melanoma = test system: SK-MEL-5 melanoma
NCI-H23 lung = test system: NCI-H23 lung
HCC-2998 colon = test system: HCC-2998 colon
T-47D breast = test system: T-47D breast
MDA-N = test system: MDA-N
BT-549 breast = test system: BT-549 breast
OVCAR-4 ovarian = test system: OVCAR-4 ovarian
MDA-MB-435 = test system: MDA-MB-435
HL-60(TB) leukemia = test system: HL-60(TB) leukemia
MCF7 breast = test system: MCF7 breast
SK-MEL-28 melanoma = test system: SK-MEL-28 melanoma
PC-3 prostate = test system: PC-3 prostate
RPMI-8226 leukemia = test system: RPMI-8226 leukemia
HOP-92 NSCLC = test system: HOP-92 NSCLC
HOP-62 NSCLC = test system: HOP-62 NSCLC
M14 melanoma = test system: M14 melanoma
SK-MEL-2 melanoma = test system: SK-MEL-2 melanoma
HCT-15 colon = test system: HCT-15 colon
U251 CNS = test system: U251 CNS

O=c1c2ccccc2n2nnc3ccc(NCCCNCCNCCCNc4ccc5nnn6c7ccccc7c(=O)c4c56)c1c32
TGI (NCI-H460 lung): 15.8 µM | TGI (CCRF-CEM leukemia): > 50 µM | TGI (IGROV1 ovarian): 8.58 µM | TGI (SN12C renal): 7.49 µM | TGI (HT29 colon): 1.52 µM | TGI (K-562 leukemia): > 50 µM | TGI (RXF 393 renal): 22.6 µM | TGI (SW-620 colon): > 22.6 µM | TGI (SNB-75 CNS): > 27.2 µM | TGI (KM12 colon): > 22.5 µM | TGI (SF-539 CNS): 8.46 µM | TGI (OVCAR-5 ovarian): 18.1 µM | TGI (SK-OV-3 ovarian): > 41.2 µM | TGI (SF-268 CNS): > 26.6 µM | TGI (MALME-3M melanoma): > 50 µM | TGI (MDA-MB-231 breast): 7.37 µM | TGI (OVCAR-3 ovarian): 16.8 µM | TGI (UACC-62 melanoma): > 50 µM | TGI (SF-295 CNS): > 27.5 µM | TGI (DU-145 prostate): > 50 µM | TGI (HCT-116 colon): > 38.5 µM | TGI (TK-10 renal): 19 µM | TGI (A549 NSCLC): 20.8 µM | TGI (HS 578T breast): 37.6 µM | TGI (EKVX NSCLC): 20.3 µM | TGI (MOLT-4 leukemia): > 21.2 µM | TGI (OVCAR-8 ovarian): > 20.2 µM | TGI (SNB-19 CNS): 35.3 µM | TGI (NCI-H522 lung): 9.84 µM | TGI (COLO 205 colon): > 50 µM | TGI (NCI-H226 lung): 0.99 µM | TGI (ACHN renal): > 18 µM | TGI (SR leukemia): > 50 µM | TGI (UO-31 renal): 19.5 µM | TGI (A498 renal): > 37 µM | TGI (NCI/ADR-RES ovarian): > 25.5 µM | TGI (UACC-257 melanoma): > 50 µM | TGI (LOX IMVI melanoma): 24 µM | TGI (CAKI-1 renal): 12.8 µM | TGI (786-0 renal): 21.3 µM | TGI (SK-MEL-5 melanoma): > 50 µM | TGI (NCI-H23 lung): 15.3 µM | TGI (HCC-2998 colon): 6.51 µM | TGI (T-47D breast): > 50 µM | TGI (MDA-N): > 50 µM | TGI (BT-549 breast): 18.9 µM | TGI (OVCAR-4 ovarian): 21 µM | TGI (MDA-MB-435): > 50 µM | TGI (HL-60(TB) leukemia): 23.5 µM | TGI (MCF7 breast): 6.92 µM | TGI (SK-MEL-28 melanoma): > 39.3 µM | TGI (PC-3 prostate): 16.3 µM | TGI (RPMI-8226 leukemia): > 12.4 µM | TGI (HOP-92 NSCLC): > 50 µM | TGI (HOP-62 NSCLC): 12.3 µM | TGI (M14 melanoma): > 30 µM | TGI (SK-MEL-2 melanoma): > 50 µM | TGI (HCT-15 colon): > 26.4 µM

Cc1ccc(C)c(COCCOCn2cc(Br)c(N)nc2=O)c1
TGI (NCI-H460 lung): > 100 µM | TGI (CCRF-CEM leukemia): > 100 µM | TGI (IGROV1 ovarian): > 100 µM | TGI (SN12C renal): > 100 µM | TGI (K-562 leukemia): > 100 µM | TGI (RXF 393 renal): > 100 µM | TGI (SW-620 colon): > 100 µM | TGI (SNB-75 CNS): > 100 µM | TGI (KM12 colon): > 100 µM | TGI (SF-539 CNS): > 100 µM | TGI (OVCAR-5 ovarian): > 100 µM | TGI (SK-OV-3 ovarian): > 100 µM | TGI (SF-268 CNS): > 100 µM | TGI (MALME-3M melanoma): > 100 µM | TGI (MDA-MB-231 breast): > 100 µM | TGI (OVCAR-3 ovarian): > 100 µM | TGI (UACC-62 melanoma): > 100 µM | TGI (SF-295 CNS): > 100 µM | TGI (DU-145 prostate): > 100 µM | TGI (HCT-116 colon): > 100 µM | TGI (TK-10 renal): > 100 µM | TGI (A549 NSCLC): > 100 µM | TGI (HS 578T breast): > 100 µM | TGI (EKVX NSCLC): > 100 µM | TGI (MOLT-4 leukemia): > 100 µM | TGI (OVCAR-8 ovarian): > 100 µM | TGI (SNB-19 CNS): > 100 µM | TGI (NCI-H522 lung): > 100 µM | TGI (COLO 205 colon): > 100 µM | TGI (NCI-H226 lung): > 100 µM | TGI (ACHN renal): > 100 µM | TGI (SR leukemia): > 100 µM | TGI (UO-31 renal): > 100 µM | TGI (A498 renal): > 100 µM | TGI (NCI/ADR-RES ovarian): > 100 µM | TGI (UACC-257 melanoma): > 100 µM | TGI (LOX IMVI melanoma): > 100 µM | TGI (CAKI-1 renal): > 100 µM | TGI (786-0 renal): > 100 µM | TGI (NCI-H23 lung): > 100 µM | TGI (HCC-2998 colon): > 100 µM | TGI (T-47D breast): > 100 µM | TGI (MDA-N): > 100 µM | TGI (BT-549 breast): > 100 µM | TGI (MDA-MB-435): > 100 µM | TGI (HL-60(TB) leukemia): > 100 µM | TGI (MCF7 breast): > 100 µM | TGI (SK-MEL-28 melanoma): > 100 µM | TGI (PC-3 prostate): > 100 µM | TGI (U251 CNS): > 100 µM | TGI (HOP-92 NSCLC): > 100 µM | TGI (HOP-62 NSCLC): > 100 µM | TGI (M14 melanoma): > 100 µM | TGI (SK-MEL-2 melanoma): > 100 µM | TGI (HCT-15 colon): > 100 µM
